These are literature values, as cited in US20220064092A1, “METHYLATION PROCESS” (priority 2019, published 2022).

Molecules are shown by their SMILES.

For this series the following is noted: qualitative statement.

Regarding `Oc1ccc(/C=C/c2cc(O)cc(O)c2)cc1` [resveratrol, 3,5,4′-trihydroxy-trans-stilbene], the half-life result is “very limited half-life”.
